Assay results from patent US6908897B2, “Covalently bridged insulin dimers” (Aventis Pharma Deutschland GmbH, priority 1999, dated 2005).

Experiments:
insulin receptors = target: T1, insulin receptors (Homo sapiens, UniProt P06213); assay: Receptor binding by displacement studies on IM-9 lymphocytes; conditions: compared with native insulin
T1 construct: endogenous in cells; host or cells: IM-9 lymphocytes
Protocol: (§1) The receptor binding was determined by displacement studies on IM-9 lymphocytes. The relative biological activity was determined on cultivated 3T3-L1 adipocytes in the form of the glucose transport.

3T3-L1 adipocytes = assay: Relative biological activity as glucose transport in cultivated 3T3-L1 adipocytes; format: cell-based; conditions: compared with native insulin
Protocol: as §1

[1] = literature value; cited from earlier work

T1 sequence (P06213 28-758 limits assumed): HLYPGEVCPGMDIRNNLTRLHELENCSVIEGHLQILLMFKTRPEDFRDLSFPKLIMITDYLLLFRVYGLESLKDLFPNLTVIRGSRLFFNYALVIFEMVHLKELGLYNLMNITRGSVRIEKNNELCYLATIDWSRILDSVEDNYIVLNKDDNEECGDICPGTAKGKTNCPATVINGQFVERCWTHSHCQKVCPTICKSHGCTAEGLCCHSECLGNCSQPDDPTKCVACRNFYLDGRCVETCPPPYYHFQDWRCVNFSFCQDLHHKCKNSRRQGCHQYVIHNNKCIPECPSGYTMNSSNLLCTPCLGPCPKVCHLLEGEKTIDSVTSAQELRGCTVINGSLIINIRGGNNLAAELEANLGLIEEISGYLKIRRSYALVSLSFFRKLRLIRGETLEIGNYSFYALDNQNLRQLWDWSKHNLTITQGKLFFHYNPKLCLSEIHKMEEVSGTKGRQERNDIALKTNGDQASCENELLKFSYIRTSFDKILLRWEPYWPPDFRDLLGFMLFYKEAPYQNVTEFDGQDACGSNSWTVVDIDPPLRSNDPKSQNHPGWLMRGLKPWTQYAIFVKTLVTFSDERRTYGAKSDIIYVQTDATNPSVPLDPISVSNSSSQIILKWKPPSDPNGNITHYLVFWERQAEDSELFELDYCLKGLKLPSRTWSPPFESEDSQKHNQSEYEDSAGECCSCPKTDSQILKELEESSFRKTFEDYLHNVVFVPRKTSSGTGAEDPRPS
T1 sequence (P06213 763-1382 partner limits assumed): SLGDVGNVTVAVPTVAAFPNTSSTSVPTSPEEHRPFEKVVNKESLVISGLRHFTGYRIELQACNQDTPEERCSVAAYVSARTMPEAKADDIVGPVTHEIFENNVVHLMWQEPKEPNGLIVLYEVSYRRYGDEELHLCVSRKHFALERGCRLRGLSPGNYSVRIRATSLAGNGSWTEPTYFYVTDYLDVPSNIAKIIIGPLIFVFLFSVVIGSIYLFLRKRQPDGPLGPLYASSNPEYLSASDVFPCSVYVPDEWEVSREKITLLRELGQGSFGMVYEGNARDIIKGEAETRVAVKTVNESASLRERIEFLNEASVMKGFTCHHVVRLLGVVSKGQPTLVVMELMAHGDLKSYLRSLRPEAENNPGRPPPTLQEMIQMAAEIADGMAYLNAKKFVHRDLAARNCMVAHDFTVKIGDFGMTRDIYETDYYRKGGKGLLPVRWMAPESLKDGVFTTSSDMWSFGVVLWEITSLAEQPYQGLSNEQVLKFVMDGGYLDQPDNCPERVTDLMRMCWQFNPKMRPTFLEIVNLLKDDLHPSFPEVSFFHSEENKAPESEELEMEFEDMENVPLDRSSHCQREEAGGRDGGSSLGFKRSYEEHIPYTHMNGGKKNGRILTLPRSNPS

Row | Rel. receptor binding (insulin receptors) [%] | Substance | Rel. biol. activity (3T3-L1 adipocytes) [%] | bioactivity in vitro [1] [%]
1 | 176 ± 45.8 | B1,B1′-Sub-[Glu^B26}-des-(B27-B30)-insulin-B26-amide Insulin Dimer | 817.5 ± 224 | –
2 | 412 ± 94.8 | B1,B1′-Sub-[Sar^B26]-des-(B27-B30)-insulin-B26-amide Insulin Dimer | 1957 ± 575 | –
3 | – | B1,B1′-suberoyl-insulin dimer | – | 28.8
